Measurements reported in ChEMBL document CHEMBL4725292 (J Med Chem, 2020).
pIC50: −log10 of the molar value.

What was measured:
[1] = Lipophilicity, logD of the compound at pH 7.4 by chromatographic method; format: physicochemical; conditions: buffer
[2] = molecular target: Bromodomain-containing protein 4 (Homo sapiens, UniProt O60885, Y390A); assay: Displacement of Alexa Fluor 647 labelled ligand from His6-thr-tagged BRD4 BD1 (1 to 477 residues)/BD2 Y390A mutant (unknown origin) after 30 mins by TR-FRET assay
[3] = molecular target: Bromodomain-containing protein 4 (Homo sapiens, UniProt O60885, Y97A); assay: Displacement of Alexa Fluor 647 labelled ligand from His6-tagged BRD4 BD2 (1 to 477 residues)/BD1 Y97A mutant (unknown origin) after 30 mins by TR-FRET assay
[4] = test system: Bromodomain-containing protein 4 (Homo sapiens), O60885 [UNDEFINED MUTATION]; assay: Selectivity index, […] for His6-thr-tagged BRD4 BD1 (1 to 477 residues)/BD2 Y390A mutant (unknown origin) to pIC50 for His6-tagged BRD4 BD2 (1 to 477 residues)/BD1 Y97A mutant (unknown origin)
[5] = molecular target: T1, ATPase family AAA domain-containing protein 2 (Homo sapiens, UniProt Q6PL18); assay: Inhibition of ATAD2 (unknown origin) by TR-FRET assay
T1 sequence (Q6PL18 whole entry): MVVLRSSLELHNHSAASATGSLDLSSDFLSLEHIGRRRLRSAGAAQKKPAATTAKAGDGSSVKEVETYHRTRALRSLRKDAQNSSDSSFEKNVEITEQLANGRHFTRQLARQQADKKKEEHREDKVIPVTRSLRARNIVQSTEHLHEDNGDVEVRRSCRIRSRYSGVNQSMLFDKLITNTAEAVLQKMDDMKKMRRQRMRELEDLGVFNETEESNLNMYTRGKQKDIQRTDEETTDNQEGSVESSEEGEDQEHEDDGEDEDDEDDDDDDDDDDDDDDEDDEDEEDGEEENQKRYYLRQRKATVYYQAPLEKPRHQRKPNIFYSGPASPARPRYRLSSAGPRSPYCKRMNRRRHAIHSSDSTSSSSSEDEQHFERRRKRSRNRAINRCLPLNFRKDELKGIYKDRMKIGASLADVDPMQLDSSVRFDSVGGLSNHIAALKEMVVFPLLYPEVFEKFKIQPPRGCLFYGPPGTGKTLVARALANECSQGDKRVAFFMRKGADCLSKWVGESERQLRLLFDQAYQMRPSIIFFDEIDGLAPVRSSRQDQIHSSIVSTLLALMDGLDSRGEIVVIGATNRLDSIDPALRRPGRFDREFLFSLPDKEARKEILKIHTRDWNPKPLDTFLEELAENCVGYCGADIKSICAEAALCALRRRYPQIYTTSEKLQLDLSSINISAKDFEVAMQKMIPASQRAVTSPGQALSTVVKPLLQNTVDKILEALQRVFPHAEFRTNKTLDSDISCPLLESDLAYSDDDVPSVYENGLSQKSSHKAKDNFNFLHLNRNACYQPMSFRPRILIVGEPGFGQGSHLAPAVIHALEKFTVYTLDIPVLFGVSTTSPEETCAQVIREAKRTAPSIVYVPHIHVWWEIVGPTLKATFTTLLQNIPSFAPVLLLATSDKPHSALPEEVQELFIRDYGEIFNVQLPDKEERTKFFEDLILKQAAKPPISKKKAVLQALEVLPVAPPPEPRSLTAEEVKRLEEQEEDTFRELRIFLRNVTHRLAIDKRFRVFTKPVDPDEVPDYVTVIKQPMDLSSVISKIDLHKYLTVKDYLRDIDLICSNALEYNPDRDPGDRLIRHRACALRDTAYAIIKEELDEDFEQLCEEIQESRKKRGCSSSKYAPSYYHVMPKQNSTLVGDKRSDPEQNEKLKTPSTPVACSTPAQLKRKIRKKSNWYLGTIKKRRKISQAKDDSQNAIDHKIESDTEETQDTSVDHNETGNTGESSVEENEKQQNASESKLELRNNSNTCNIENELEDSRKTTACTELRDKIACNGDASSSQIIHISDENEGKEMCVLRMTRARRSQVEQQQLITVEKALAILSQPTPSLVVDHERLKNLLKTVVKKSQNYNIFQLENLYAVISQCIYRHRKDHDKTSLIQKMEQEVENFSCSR

[6] = Permeability of the compound in pH 7.4 phosphate buffer measured after 3 hrs by artificial membrane permeability assay based HPLC analysis; format: ADME; conditions: PAMPA, pH 7.4, read-out: permeability

Compound	chromatographic logD [1]	pIC50 [2]	pIC50 [3]	Selectivity Index [4]	pIC50 [5]	Papp at 3 h [6] [×10⁻⁶ cm/s]	logD [1]
CO[C@H]1CNC[C@@H](OCC2CCC(F)(F)CC2)[C@@H]1Nc1ncc(-c2cncc(C)c2)c2cc(C)c(=O)[nH]c12	3.17	–	–	–	–	–	–
Cc1cc2c(-c3cnn(C)c3)cnc(N[C@@H]3CCN(C)C[C@H]3C(=O)NC3CCCCC3)c2[nH]c1=O	2.43	7.10	4.70	251	–	–	–
Cc1coc(-c2cnc(N[C@@H]3CCN(C)C[C@H]3C(=O)NC3CCCCC3)c3[nH]c(=O)c(C)cc23)c1	4.46	7.40	4.70	501	–	–	–
Cc1cc2c(-c3ccco3)cnc(N[C@H]3CCNC[C@@H]3C(=O)NC3CCCCC3)c2[nH]c1=O	3.12	5.80	5.00	–	–	–	–
Cc1ccoc1-c1cnc(N[C@@H]2CCN(C)C[C@H]2C(=O)NC2CCCCC2)c2[nH]c(=O)c(C)cc12	4.35	7.30	4.80	316	–	–	–
Cc1ccc(-c2cnc(N[C@@H]3CCN(C)C[C@H]3C(=O)NC3CCCCC3)c3[nH]c(=O)c(C)cc23)o1	4.33	7.60	4.80	631	–	–	–
Cc1cc2c(-c3cccs3)cnc(N[C@@H]3CCN(C)C[C@H]3C(=O)NC3CCCCC3)c2[nH]c1=O	4.61	7.80	5.40	251	–	–	–
Cc1ccc(-c2cnc(N[C@@H]3CCN(C)C[C@H]3C(=O)NC3CCCCC3)c3[nH]c(=O)c(C)cc23)s1	5.3	7.20	< 4.30	> 794	–	–	–
Cc1csc(-c2cnc(N[C@@H]3CCN(C)C[C@H]3C(=O)NC3CCCCC3)c3[nH]c(=O)c(C)cc23)c1	5.27	7.30	4.80	316	–	–	–
Cc1cc2c(C3=CCCC3)cnc(N[C@@H]3CCNC[C@H]3C(=O)NC3CCCCC3)c2[nH]c1=O (mixture of isomers)	4.4	6.70	4.40	200	–	–	–
Cc1cc2ccnc(N[C@@H]3CCNC[C@H]3C(=O)N[C@@H]3CCCOC3)c2[nH]c1=O (mixture of isomers)	0.85	5.40	< 4.30	> 10	< 4.40	–	–
Cc1cc2c(-c3ccccc3)cnc(N[C@@H]3CCNC[C@H]3C(=O)NC3CCCCC3)c2[nH]c1=O (mixture of isomers)	3.36	6.20	4.60	40	–	–	–
Cc1cc2ccnc(N[C@@H]3CCNC[C@H]3C(=O)NCC3CCCC3)c2[nH]c1=O (mixture of isomers)	2.36	5.80	< 4.30	> 30	< 4.40	–	–
Cc1cc2ccnc(N[C@@H]3CCNC[C@H]3C(=O)NC3CCOCC3)c2[nH]c1=O (mixture of isomers)	0.71	5.60	4.90	5	< 4.40	–	–
Cc1cc2c(C3=CCOCC3)cnc(N[C@@H]3CCNC[C@H]3C(=O)NC3CCCCC3)c2[nH]c1=O (mixture of isomers)	2.07	5.90	4.40	30	–	–	–
Cc1cc2c(-c3cnn(C)c3)cnc(N[C@@H]3CCNC[C@H]3C(=O)NC3CCCCC3)c2[nH]c1=O (mixture of isomers)	1.47	6.80	4.80	100	–	–	–

Compound	chromatographic logD [1]	pIC50 [2]	pIC50 [3]	Selectivity Index [4]	pIC50 [5]	Papp at 3 h [6] [×10⁻⁶ cm/s]	logD [1]
Cc1cc2ccnc(N[C@@H]3CCNC[C@H]3C(=O)NCC(C)C)c2[nH]c1=O (mixture of isomers)	1.6	5.70	< 4.30	> 25	< 4.40	–	–
Cc1cc2c(-c3ccsc3)cnc(N[C@@H]3CCNC[C@H]3C(=O)NC3CCCCC3)c2[nH]c1=O (mixture of isomers)	3.79	7.00	< 4.30	> 501	–	–	–
Cc1cc2c(C3=CCCCC3)cnc(N[C@@H]3CCNC[C@H]3C(=O)NC3CCCCC3)c2[nH]c1=O (mixture of isomers)	4.78	6.00	4.90	10	–	–	–
Cc1cc2ccnc(N[C@@H]3CCNC[C@H]3C(=O)N[C@H]3CCCOC3)c2[nH]c1=O (mixture of isomers)	0.98	4.60	< 4.30	> 2	< 4.40	–	–
CO[C@@H](C)CNC(=O)[C@@H]1CNCC[C@H]1Nc1nccc2cc(C)c(=O)[nH]c12 (mixture of isomers)	1.08	5.10	4.50	4	< 4.40	–	–
Cc1cc2ccnc(N[C@@H]3CCNC[C@H]3C(=O)NCC3CC3)c2[nH]c1=O (mixture of isomers)	1.05	5.50	< 4.30	> 15	< 4.40	–	–
Cc1cc2c(-c3ccoc3)cnc(N[C@@H]3CCNC[C@H]3C(=O)NC3CCCCC3)c2[nH]c1=O (mixture of isomers)	2.91	7.40	4.90	316	–	–	–
C/C=C/c1cnc(N[C@@H]2CCNC[C@H]2C(=O)NC2CCCCC2)c2[nH]c(=O)c(C)cc12 (racemic)	3.55	6.90	4.50	250	–	–	–
Cc1cc2cccc(N[C@@H]3CCNC[C@H]3C(=O)NC3CCCCC3)c2[nH]c1=O (racemic)	2.52	5.50	4.50	10	–	< 0.3	–
Cc1cc2c(-c3cccs3)cnc(N[C@@H]3CCNC[C@H]3C(=O)NC3CCCCC3)c2[nH]c1=O (racemic)	3.23	7.30	4.50	630	–	–	–
Cc1cc2c(-c3ccco3)cnc(N[C@@H]3CCNC[C@H]3C(=O)NC3CCCCC3)c2[nH]c1=O (racemic)	–	7.40	4.60	–	–	3.8	3.14
Cc1cc2ccnc(N[C@@H]3CCNC[C@H]3C(=O)NC3CCCC3)c2[nH]c1=O (relative stereo)	1.87	5.60	4.40	15	< 4.40	–	–
Cc1cc2ccnc(N[C@@H]3CCNC[C@@H]3C(=O)NC3CCCCC3)c2[nH]c1=O (relative stereo)	1.88	5.30	< 4.30	> 10	< 4.40	–	–
Cc1ccsc1-c1cnc(N[C@@H]2CCN(C)C[C@H]2C(=O)NC2CCCCC2)c2[nH]c(=O)c(C)cc12 (relative stereo)	5.13	7.00	4.50	316	–	–	–
Cc1cc2ccnc(N[C@@H]3CCNC[C@H]3C(=O)N[C@H](C)C(C)C)c2[nH]c1=O (relative stereo)	1.89	5.30	< 4.30	> 10	< 4.40	–	–
Cc1cncc(-c2cnc(N[C@@H]3CCNC[C@H]3C(=O)NC3CCCCC3)c3[nH]c(=O)c(C)cc23)c1 (relative stereo)	2.51	5.90	< 4.30	> 40	–	–	–
